Source: US20250230193A1, “CYCLIC COMPOUND HAVING SELECTIVE KRAS INHIBITORY EFFECT ON HRAS AND NRAS” (CHUGAI SEIYAKU KABUSHIKI KAISHA, priority 2022, published 2025)
Where a SMILES comes first, the peptide text is derived from it. Bridges are numbered along the chain shown (N, C = ends). [ ]: non-standard residue; d: D form. hPhe(3-Cl-4-CF3) = N[C@@H](CCc1ccc(C(F)(F)F)c(Cl)c1)C(=O)O; NPrPhe(4-CF3) = CCCN[C@@H](Cc1ccc(C(F)(F)F)cc1)C(=O)O; NMeGly(cPent) = CN[C@H](C(=O)O)C1CCCC1; Pro(4,4-F2) = O=C(O)[C@@H]1CC(F)(F)CN1; NMeL = CN[C@@H](CC(C)C)C(=O)O; Ac5c = NC1(C(=O)O)CCCC1; Aze = O=C(O)[C@@H]1CCN1; Sar = CNCC(=O)O

Assays:
[1] = biological target: GDP-bound NRAS wild-type protein (Homo sapiens, UniProt P01111); test: Binding to NRAS by surface plasmon resonance (SPR), Single Cycle Kinetics; conditions: for NRAS/KRAS (ratio of KD value with respect to NRAS to KD value with respect to KRAS) / NRAS/KRAS (ratio of KD value for NRAS to KD value for KRAS): GDP-bound NRAS wild-type vs GDP-bound KRAS wild-type; for NRAS/KRAS (ratio of KD value with respect to GDP-bound NRAS wild-type protein to KD value with respect to KRAS): class symbols
GDP-bound NRAS wild-type protein, sequence (P01111 whole entry): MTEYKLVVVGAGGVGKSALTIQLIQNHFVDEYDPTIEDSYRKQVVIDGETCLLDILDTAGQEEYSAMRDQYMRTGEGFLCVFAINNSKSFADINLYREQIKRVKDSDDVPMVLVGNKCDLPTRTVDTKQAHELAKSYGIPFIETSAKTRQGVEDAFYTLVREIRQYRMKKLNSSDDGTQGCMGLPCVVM

[2] = biological target: GDP-bound HRAS wild-type protein (Homo sapiens, UniProt P01112); test: Binding to HRAS by surface plasmon resonance (SPR), Single Cycle Kinetics; conditions: for HRAS/KRAS (ratio of KD value with respect to HRAS to KD value with respect to KRAS) / HRAS/KRAS (ratio of KD value for HRAS to KD value for KRAS): GDP-bound HRAS wild-type vs GDP-bound KRAS wild-type; for HRAS/KRAS (ratio of KD value with respect to GDP-bound HRAS wild-type protein to KD value with respect to KRAS): class symbols
GDP-bound HRAS wild-type protein, sequence (P01112 whole entry): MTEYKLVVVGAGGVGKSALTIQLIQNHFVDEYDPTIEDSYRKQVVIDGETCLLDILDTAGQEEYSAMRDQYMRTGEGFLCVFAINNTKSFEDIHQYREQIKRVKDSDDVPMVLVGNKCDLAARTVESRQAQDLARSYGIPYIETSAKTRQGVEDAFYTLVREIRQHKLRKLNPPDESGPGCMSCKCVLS

With `CCC[C@H]1C(=O)N[C@@H](C2CCC2)C(=O)N(C)CC(=O)N(C)[C@H]2C/C=C\CCN(C2=O)[C@@H](Cc2ccc(C)cc2)C(=O)N(C)CC(=O)N[C@@H](CCc2ccc(C(F)(F)F)c(F)c2)C(=O)N2C[C@H](OCC)C[C@H]2C(=O)NC2(CC(C)(C)C2)C(=O)N(C)[C@@H](C2CCC2)C(=O)N(C)[C@H](C(=O)N(C)C)CC(=O)N1C` [PP2242] the “NRAS/KRAS (ratio of KD value with respect to NRAS to KD value with respect to KRAS)” value ([1]; SPR) was “A (a compound having 10 or more and less than 20 is denoted as A)” and the “HRAS/KRAS (ratio of KD value with respect to HRAS to KD value with respect to KRAS)” value ([2]; SPR) was “A (a compound having 10 or more and less than 20 is denoted as A)”.

For `CCCN1C(=O)CN(C)C(=O)[C@@H]2CCN2C(=O)[C@H]([C@@H](C)CC)NC(=O)[C@H](CC(C)C)N(C)C(=O)C[C@@H](C(=O)N(C)C)NC(=O)[C@H](C2CCCC2)N(C)C(=O)C2(CCCC2)NC(=O)[C@@H]2CC(F)(F)CN2C(=O)[C@H](CCc2ccc(C(F)(F)F)c(Cl)c2)NC(=O)CN(C)C(=O)[C@@H]1Cc1ccc(C(F)(F)F)cc1` [PP0375] ([NMeL]I[Aze][Sar][NPrPhe(4-CF3)][Sar][hPhe(3-Cl-4-CF3)][Pro(4,4-F2)][Ac5c][NMeGly(cPent)]D-NMe2; lactam N-11), the “NRAS/KRAS (ratio of KD for GDP-bound NRAS wild-type to KD for KRAS)” value ([1]; KD ratio NRAS/KRAS, SPR) was “B (a compound having 3 or more and less than 10 is denoted as B)” and the “HRAS/KRAS (ratio of KD for GDP-bound HRAS wild-type to KD for KRAS)” value ([2]; KD ratio HRAS/KRAS, SPR) was “B (a compound having 3 or more and less than 10 is denoted as B)”.

With `CCO[C@@H]1C[C@H]2C(=O)NC3(CC(C)(C)C3)C(=O)N(C)[C@@H](C3CCCC3)C(=O)N(C)[C@H](C(=O)N(C)CC)CC(=O)N(C)[C@H]3CCCC/C=C/c4ccc(cc4)C[C@@H](C(=O)N(C)CC(=O)N[C@@H](CCc4ccc(C(F)(F)F)c(OC)c4)C(=O)N2C1)N1CC/C=C\C[C@@H](C1=O)N(C)C(=O)CN(C)C(=O)[C@H]([C@@H](C)CC)NC3=O` [PP1830, (1S,7S,11R,13S,19S,22S,26S,29S,35S,37Z,47E)-19-cyclopentyl-11-ethoxy-N-ethyl-7-[2-[3-methoxy-4-(trifluoromethyl)phenyl]ethyl]-N,3,3′,3′,18,21,25,31,34-nonamethyl-29-[(1S)-1-methylpropyl]-2,5,8,14,17,20,24,27,30,33,55-undecaoxo-spiro[3,6,9,15,18,21,25,28,31,34,41-undecazapentacyclo[24.15.11.2^43,46.1^35,41.0^9,13]pentapentaconta-37,43(54),44,46(53),47-pentaene-16,1′-cyclobutane]-22-carboxamide] the “NRAS/KRAS (ratio of KD value for NRAS to KD value for KRAS)” value ([1]; KD ratio, SPR) was “A (a compound having 10 or more and less than 20 is denoted as A)” and the “HRAS/KRAS (ratio of KD value for HRAS to KD value for KRAS)” value ([2]; KD ratio, SPR) was “B (a compound having 3 or more and less than 10 is denoted as B)”.

In the case of `CCC[C@H]1C(=O)N[C@@H]([C@@H](C)CC)C(=O)N2C[C@@H](OC)C[C@H]2C(=O)N(C)[C@H]2C/C=C\CCN(C2=O)[C@@H](Cc2ccc(C)cc2)C(=O)N(C)CC(=O)N[C@@H](CCc2cc(F)c(C(F)(F)F)c(F)c2)C(=O)N2C[C@H](OCC)C[C@H]2C(=O)NC2(CC(C)(C)C2)C(=O)N(C)[C@@H](C2CCCC2)C(=O)N(C)[C@H](C(=O)N(C)C)CC(=O)N1C` [PP2556], the “NRAS/KRAS (ratio of KD value with respect to GDP-bound NRAS wild-type protein to KD value with respect to KRAS)” value ([1]; KD ratio NRAS/KRAS) is reported as “A (a compound having 10 or more and less than 20 is denoted as A)” and the “HRAS/KRAS (ratio of KD value with respect to GDP-bound HRAS wild-type protein to KD value with respect to KRAS)” value ([2]; KD ratio HRAS/KRAS) is reported as “B (a compound having 3 or more and less than 10 is denoted as B)”.

For `CCC[C@H]1C(=O)N[C@@H]([C@@H](C)CC)C(=O)N(C)CC(=O)N(C)[C@H]2C/C=C\CCN(C2=O)[C@@H](Cc2ccc(C(F)(F)F)cc2)C(=O)N(C)CC(=O)N[C@@H](CCc2cc(Cl)c3c(ccn3C)c2)C(=O)N2C[C@H](OCC)C[C@H]2C(=O)NC2(CC(C)(C)C2)C(=O)N(C)[C@@H](C2CCCC2)C(=O)N(C)[C@H](C(=O)N(C)C)CC(=O)N1C` [PP2950], the “NRAS/KRAS (ratio of KD value with respect to GDP-bound NRAS wild-type protein to KD value with respect to KRAS)” value ([1]; KD ratio NRAS/KRAS) was “A (a compound having 10 or more and less than 20 is denoted as A)” and the “HRAS/KRAS (ratio of KD value with respect to GDP-bound HRAS wild-type protein to KD value with respect to KRAS)” value ([2]; KD ratio HRAS/KRAS) was “A (a compound having 10 or more and less than 20 is denoted as A)”.

In the case of `CC[C@H](C)[C@@H]1NC(=O)[C@H](CC)N(C)C(=O)C[C@@H](C(=O)N(C)CC)N(C)C(=O)[C@H](C2CCCC2)N(C)C(=O)C2(CC(C)(C)C2)NC(=O)[C@@H]2C[C@H](C)CN2C(=O)[C@H](CCc2ccc(C(F)(F)F)c(Cl)c2)NC(=O)CN(C)C(=O)[C@H](Cc2ccc(C)cc2)N2CC/C=C\C[C@@H](C2=O)N(C)C(=O)CN(C)C1=O` [PP1874], the “NRAS/KRAS (ratio of KD value for NRAS to KD value for KRAS)” value ([1]; KD ratio, SPR) is reported as “A (a compound having 10 or more and less than 20 is denoted as A)” and the “HRAS/KRAS (ratio of KD value for HRAS to KD value for KRAS)” value ([2]; KD ratio, SPR) is reported as “A (a compound having 10 or more and less than 20 is denoted as A)”.

`C#CC[C@H]1C(=O)N[C@@H]([C@@H](C)CC)C(=O)N(C)CC(=O)N(C)[C@H]2C/C=C\CCN(C2=O)[C@@H](Cc2ccc(C(F)(F)F)cc2)C(=O)N(C)CC(=O)N[C@@H](CCc2cc(F)c(C(F)(F)F)c(F)c2)C(=O)N2C[C@H](OCC)C[C@H]2C(=O)NC2(CCC2)C(=O)N(C)[C@@H](C2CCCC2)C(=O)N(C)[C@H](C(=O)N(C)C)CC(=O)N1C` [PP1115] was tested, and the “NRAS/KRAS (ratio of KD value with respect to NRAS to KD value with respect to KRAS)” value ([1]; KD ratio, SPR) was “A (a compound having 10 or more and less than 20 is denoted as A)” and the “HRAS/KRAS (ratio of KD value with respect to HRAS to KD value with respect to KRAS)” value ([2]; KD ratio, SPR) was “A (a compound having 10 or more and less than 20 is denoted as A)”.
